Test results as given in ChEMBL document CHEMBL1137793, “Synthesis and biological activity of analogs of fecapentaene-12” (J Nat Prod, 1987).

Columns and labels:
Details in all cases: salmonella enterica subsp. enterica serovar typhimurium
Salmonella typhimurium [1] = assay: Mutagenic activity in Salmonella Typhimurium TA100 assessed as number of revertant colonies at 313 ng/plate after 48 hrs by Ames assay; type: toxicity, organism-based
Salmonella typhimurium [2] = assay: Toxicity in Salmonella Typhimurium TA98 at 5000 ng/plate after 48 hrs by Ames assay; type: organism-based
Salmonella typhimurium [3] = assay: Toxicity in Salmonella Typhimurium TA100 at 5000 ng/plate after 48 hrs by Ames assay; type: organism-based
Salmonella typhimurium [4] = assay: Toxicity in Salmonella Typhimurium TA98 at 10000 ng/plate after 48 hrs by Ames assay; type: organism-based
Salmonella typhimurium [5] = assay: Toxicity in Salmonella Typhimurium TA100 at 2500 ng/plate after 48 hrs by Ames assay; type: organism-based
Salmonella typhimurium [6] = assay: Mutagenic activity in Salmonella Typhimurium TA100 assessed as number of revertant colonies at 156 ng/plate after 48 hrs by Ames assay; type: toxicity, organism-based
Salmonella typhimurium [7] = assay: Toxicity in Salmonella Typhimurium TA100 at 10000 ng/plate after 48 hrs by Ames assay; type: organism-based
Salmonella typhimurium [8] = assay: Mutagenic activity in Salmonella Typhimurium TA100 assessed as number of revertant colonies at 36 ng/plate after 48 hrs by Ames assay; type: toxicity, organism-based
Salmonella typhimurium [9] = assay: Mutagenic activity in Salmonella Typhimurium TA100 assessed as number of revertant colonies at 78 ng/plate after 48 hrs by Ames assay; type: toxicity, organism-based
Salmonella typhimurium [10] = assay: Mutagenic activity in aldehyde-sensitive Salmonella Typhimurium TA104 assessed as number of revertant colonies at 25000 ng/plate after 48 hrs by Ames assay; type: toxicity, organism-based
Salmonella typhimurium [11] = assay: Mutagenic activity in Salmonella Typhimurium TA100 assessed as number of revertant colonies at 25000 ng/plate after 48 hrs by Ames assay; type: toxicity, organism-based
Salmonella typhimurium [12] = assay: Mutagenic activity in aldehyde-sensitive Salmonella Typhimurium TA104 assessed as number of revertant colonies at 50000 ng/plate after 48 hrs by Ames assay; type: toxicity, organism-based
Salmonella typhimurium [13] = assay: Mutagenic activity in aldehyde-sensitive Salmonella Typhimurium TA104 assessed as number of revertant colonies at 100000 ng/plate after 48 hrs by Ames assay; type: toxicity, organism-based
Salmonella typhimurium [14] = assay: Mutagenic activity in Salmonella Typhimurium TA98 assessed as number of revertant colonies at 100000 ng/plate after 48 hrs by Ames assay; type: toxicity, organism-based
Salmonella typhimurium [15] = assay: Mutagenic activity in Salmonella Typhimurium TA100 assessed as number of revertant colonies at 100000 ng/plate after 48 hrs by Ames assay; type: toxicity, organism-based
Salmonella typhimurium [16] = assay: Mutagenic activity in Salmonella Typhimurium TA100 assessed as number of revertant colonies at 50000 ng/plate after 48 hrs by Ames assay; type: toxicity, organism-based
Salmonella typhimurium [17] = assay: Mutagenic activity in Salmonella Typhimurium TA98 assessed as number of revertant colonies at 50000 ng/plate after 48 hrs by Ames assay; type: toxicity, organism-based
Salmonella typhimurium [18] = assay: Toxicity in aldehyde-sensitive Salmonella Typhimurium TA104 at 2500 ng/plate after 48 hrs by Ames assay; type: organism-based
Salmonella typhimurium [19] = assay: Toxicity in aldehyde-sensitive Salmonella Typhimurium TA104 at 10000 ng/plate after 48 hrs by Ames assay; type: organism-based
Salmonella typhimurium [20] = assay: Toxicity in aldehyde-sensitive Salmonella Typhimurium TA104 at 5000 ng/plate after 48 hrs by Ames assay; type: organism-based

CC/C=C/C=C/C=C/C=C/C=C/OC[C@@H](O)CO
Activity (Salmonella typhimurium [1]): 612
Activity (Salmonella typhimurium [2]): Toxic
Activity (Salmonella typhimurium [3]): Toxic
Activity (Salmonella typhimurium [4]): Toxic
Activity (Salmonella typhimurium [5]): Toxic
Activity (Salmonella typhimurium [6]): 459
Activity (Salmonella typhimurium [7]): Toxic
Activity (Salmonella typhimurium [8]): 187
Activity (Salmonella typhimurium [9]): 306

CC/C=C/C=C/C=C/C=C/C=O
Activity (Salmonella typhimurium [10]): 165
Activity (Salmonella typhimurium [11]): 185
Activity (Salmonella typhimurium [12]): 186
Activity (Salmonella typhimurium [13]): 181
Activity (Salmonella typhimurium [14]): 23
Activity (Salmonella typhimurium [15]): 221
Activity (Salmonella typhimurium [16]): 187
Activity (Salmonella typhimurium [17]): 24

CC/C=C/C=C/C=C/C=C/C=C/OCC(O)CO (racemic)
Activity (Salmonella typhimurium [1]): 799
Activity (Salmonella typhimurium [2]): Toxic
Activity (Salmonella typhimurium [3]): Toxic
Activity (Salmonella typhimurium [4]): Toxic
Activity (Salmonella typhimurium [18]): Toxic
Activity (Salmonella typhimurium [5]): Toxic
Activity (Salmonella typhimurium [6]): 561
Activity (Salmonella typhimurium [7]): Toxic
Activity (Salmonella typhimurium [8]): 184
Activity (Salmonella typhimurium [19]): Toxic
Activity (Salmonella typhimurium [9]): 204
Activity (Salmonella typhimurium [20]): Toxic
